# Patent US12310971B2, “Coffee bean compositions comprising paraxanthine and methods for their production” (RAREBIRD, INC., priority 2021, dated 2025)
# Experiments:
# [1] = Paraxanthine concentration in filtered aqueous stock infusion solution; type: physicochemical; details: 18 grams of paraxanthine mixed in 1 liter of water at 85° C., filtered to remove undissolved paraxanthine
# Experimental: In the first, infusing, step, the three batches of green coffee beans were individually infused with paraxanthine dissolved in water, the infusion solvent, to produce green solvated paraxanthine coffee beans. A stock solution of infusion solvent comprising paraxanthine was generated by mixing 18 grams of paraxanthine in 1 liter of water at 85° C.; the solution was then filtered to remove any residual, undissolved paraxanthine. The paraxanthine concentration in the stock solution was approximately 74 mM. Infusions were performed in 250-mL glass jars using 60 grams of green coffee beans and 120 grams of the stock infusion solution. The mixtures were incubated at 85° C. for 1 hour with periodic mixing. Subsequently, the green solvated paraxanthine coffee beans were separated using a colander, rinsed, and residual solvent removed from the surface of the beans. The mass of the infused beans was measured and compared to the mass of the original green coffee beans to determine the infusion solvent content. The moisture contents for batches 1, 2, and 3 were 45.1%, 46.9%, and 44.8%, respectively.
# [2] = Solubility of paraxanthine in infusion solvents as a function of pH; type: physicochemical; details: dependence on pH
# Text: Thus, performing the infusing step at a pH of 7 or higher can be useful to increase the paraxanthine content of the finished paraxanthine coffee. In various embodiments, the pH of the infusion mixture is greater than pH 7. In some embodiments, the pH of the infusion mixture is greater than pH 8. In some embodiments, the pH of the infusion mixture is greater than 8.5. In some embodiments, the pH of the infusion mixture is greater than 9.0. In some embodiments, the pH of the infusion mixture is greater than 9.5.
# [3] = in humans; cited from earlier work
paraxanthine concentration in the stock solution [1],solubility of paraxanthine in the infusion solvents [2],Compound,half-life [3]
approximately 74 mM,increases with increasing pH,Cn1c(=O)[nH]c2ncn(C)c2c1=O [paraxanthine],–
–,–,Cn1c(=O)c2c(ncn2C)n(C)c1=O [caffeine],4.1 ± 0.8 h
